# Experimental data as given in patent publication US4591504A, “Human leucocyte pepsin-like enzyme as a therapeutic agent for treating allergic disorders and immune complex diseases” (Mochida Pharmaceutical Co., Ltd., priority 1982, dated 1986).
# Legend:
# [1] = test system: human breast cancer cells MX-1; test: Effect on the growth of cultured human breast cancer cells MX-1; type: cell-based; conditions: 100 μg/ml, 48 hours, read-out: Growth inhibition rate
# Method: (§1) Human breast cancer cells MX-1 and mouse leukemia cells L1210 were respectively suspended at a cell concentration of 10^5 /ml in Eagle's medium containing 10% calf serum and test substances. The cells were cultured at 37° C. under 5% CO2 for 48 hours. Then the number of viable cells was counted after staining with Tripan Blue. [formula]
# leukemia cells P388 = test: Effect on leukemia cells P388 bearing mice; type: in vivo, mouse (BDF1); conditions: 0.5 mg/kg; control 100 ± 5
# Method: 10^5 of leukemia cells P388 were transplanted intraperitoneally to a group of 5 BDF1 male mice. The human leucocyte pepsin-like enzyme was injected intravenously into the mice twice a day beginning on the next day until the animals died. The average life span was calculated and expressed as a percentage of control. [formula]
# [2] = test system: mouse leukemia cells L1210; test: Effect on the growth of cultured mouse leukemia cells L1210; type: cell-based; conditions: 100 μg/ml, 48 hours, read-out: Growth inhibition rate
# Method: as §1
structure (smiles),measurement,setting,value
CO[C@@]12[C@H](COC(N)=O)C3=C(C(=O)C(C)=C(N)C3=O)N1C[C@@H]1N[C@@H]12 [Mitomycin C],inhibition at 100 µg/mL,[1],48%
same,Average life span (percentage of control),leukemia cells P388,135 ± 16%
same,inhibition at 100 µg/mL,[2],61%
